Laboratory results reported in patent US20120004282A1, “RNA Interference Mediated Inhibition of the Intercellular Adhesion Molecule 1 (ICAM-1) Gene Expression Using Short Interfering Nucleic Acid (siNA)” (Merck Sharp & Dohme Corp,, priority 2009, published 2012).
[invAb] = inverted abasic unit; m = 2'-O-methyl; r = 2'-OH (RNA); f = 2'-fluoro

The substances below were run on ICAM-1 mRNA (assay: ICAM-1 mRNA knock-down in transfected Calu-1 cells (Taqman RT-PCR)). Conditions: Calu-1 cells, 10 nM siNA, 24 hrs post-transfection, mean ± S.D., relative to non-targeting control.
Type: cell-based, human
Description: Calu-1 (human; ATCC cat# HTB-54): Cells were cultured at 37° C. in the presence of 5% CO2 and grown in McCoy's 5a medium supplemented with fetal bovine serum at a final concentration of 10% and 100 μg/mL of streptomycin and 100 U/mL penicillin.
All transfections were performed using RNAiMax (Invitrogen Cat# 13778-150) as per the manufacturer's instructions.
Calu-1 cells were plated in all wells of a tissue-culture treated, 96-well plate at final counts of 5,000 cells/well in 100 μL of appropriate culture media. Cells were cultured for 24 hours after plating at 37° C. in the presence of 5% CO2.
After 24 hours, complexes containing siNA and RNAiMax were created as follows. A solution of RNAiMax diluted 33-fold in OPTI-MEM was prepared. In parallel, solutions of the siNAs for testing were prepared to a final concentration of 120 nM in OPTI-MEM. After incubation of RNAiMax/OPTI-MEM solution at room temperature for 5 min, an equal volume of the siNA solution and the RNAiMax solution were added together for each of the siNAs. […] This solution was incubated at room temperature for 20 minutes. After incubation, 20 uL of the solution was added to each of the relevant wells. The final concentration of siNA in each well was 10 nM and the final volume of RNAiMax in each well was 0.3 uL.
The time of incubation with the RNAiMax-siNA complexes was 24 hours, unless otherwise indicated. There was no change in media between the transfection and harvesting of the cells unless otherwise indicated.
Dose response curves were carried out in a similar fashion in 96-well plates, while maintaining a constant amount of RNAiMax in each transfection.
RNA was extracted from a 96-well plate using the TaqMan® Gene Expression Cells-to-CT™ Kit (Cat# 4399002) with a modified protocol. Briefly, a 60 uL (1 plate) or 110 uL (2 plates) of the Lysis Solution with DNase I was dispensed into each well of the Lysis Buffer Plate (twin.tec full skirt plate). The lysis buffer and stop plates were stored at 4° C. until the cells were washed.
The plate was spun at 1100 rpm for 5 minutes. The culture medium was aspirated and discarded from the wells of the culture plate. The lysis was performed automatically using a BioMek FX instrument and method. After the Biomek method was completed, the lysis plate was incubated for 2 min. at room temperature. The lysis plate can be stored for 2 hours at 4° C., or at −20° C. or −80° C. for two months.
Each well of the reverse transcription plate required 10 uL of 2× reverse transcriptase Buffer, 1 uL of 20× reverse transcription enzyme and 2 uL of nuclease-free water. The reverse transcription master mix was prepared by mixing 2× reverse transcription buffer, 20× reverse transcription enzyme mix, and nuclease-free water. 13 uL of the reverse transcription master mix was dispensed into each well of the reverse transcription plate (semi-skirted). A separate reverse transcription plate was prepared for each cell plate. The plate was loaded onto a Biomek NX or Biomek FX Dual-96 and the Biomek method was run. The program is programmed to automatically added 7 uL of lysate from the cell lysis procedure described above into each well of the reverse transcription plate. The plate is sealed and spun on a centrifuge (1000 rpm for 30 seconds) to settle the contents to the bottom of the reverse transcription plate. The plate is placed in a thermocycler at 37° C. for 60 min, 95° C. for 5 min, and 4° C. until the plate is removed from the thermocycler. Upon removal, if not used immediately, the plate was frozen at −20° C.
A series of probes and primers were used to detect the various mRNA transcripts of the genes of ICAM-1 and ICAM-2 in human cell lines (see Table 2). All the Taqman probes and primers for the experiments here-in described were supplied as pre-validated sets by Applied Biosystems, Inc., (see Table 2). The assays were performed on an ABI 7900 instrument, according to the manufacturer's instructions. […]

Row | Substance | % KD Human
1 | 48700-DC: siNA duplex, ICAM-1 target site 1549 (m); sense B uGccAGuAcuGcuGGucAu TTB; antisense AUGAccAGcAGuAcuGGcAUU (sense UGCCAGUACUGCUGGUCAUTT; antisense AUGACCAGCAGUACUGGCAUU; sense: DNA at AGT, 2'-fluoro at CU, [invAb] at 5' end, 3' end, backbone not given here; antisense: sugars from the 5' end rrrmffmmfmmfmffmmfmmm, backbone not given here) | 13 ± 5%
2 | 48725-DC: siNA duplex, ICAM-1 target site 1143 (h); sense B cAGucAGuGuGAccGcAGA TTB; antisense UCUGcGGucAcAcuGAcuGUU (sense CAGUCAGUGUGACCGCAGATT; antisense UCUGCGGUCACACUGACUGUU; sense: DNA at AGT, 2'-fluoro at CU, [invAb] at 5' end, 3' end, backbone not given here; antisense: sugars from the 5' end rrrmfmmffmfmffmmffmmm, backbone not given here) | 53 ± 19%
3 | 48707-DC: siNA duplex, ICAM-1 target site 258 (m); sense B AcucAGuGGcuGAAAGAuG TTB; antisense CAUcuuucAGccAcuGAGuUU (sense ACUCAGUGGCUGAAAGAUGTT; antisense CAUCUUUCAGCCACUGAGUUU; sense: DNA at AGT, 2'-fluoro at CU, [invAb] at 5' end, 3' end, backbone not given here; antisense: sugars from the 5' end rrrfffffmmffmffmmmfmm, backbone not given here) | 46 ± 17%
4 | 48705-DC: siNA duplex, ICAM-1 target site 987 (m); sense B AGGAccuuAAcAGucuAcA TTB; antisense UGUAGAcuGuuAAGGuccuUU (sense AGGACCUUAACAGUCUACATT; antisense UGUAGACUGUUAAGGUCCUUU; sense: DNA at AGT, 2'-fluoro at CU, [invAb] at 5' end, 3' end, backbone not given here; antisense: sugars from the 5' end rrrmmmffmffmmmmffffmm, backbone not given here) | 5 ± 51%
5 | 29290-DC: siNA duplex, ICAM-1 target site 1226 (h); sense B cAGAcAGuGAccAucuAcA TTB; antisense UGUAGAuGGucAcuGucuGUU (sense CAGACAGUGACCAUCUACATT; antisense UGUAGAUGGUCACUGUCUGUU; sense: DNA at AGT, 2'-fluoro at CU, [invAb] at 5' end, 3' end, backbone not given here; antisense: sugars from the 5' end rrrmmmfmmffmffmfffmmm, backbone not given here) | 47 ± 18%
6 | 48713-DC: siNA duplex, ICAM-1 target site 709 (m); sense B GGAcuuucGAucuuccAGc TTB; antisense GCUGGAAGAucGAAAGuccUU (sense GGACUUUCGAUCUUCCAGCTT; antisense GCUGGAAGAUCGAAAGUCCUU; sense: DNA at AGT, 2'-fluoro at CU, [invAb] at 5' end, 3' end, backbone not given here; antisense: sugars from the 5' end rrrmmmmmmffmmmmmfffmm, backbone not given here) | 36 ± 17%
7 | 48710-DC: siNA duplex, ICAM-1 target site 1574 (m); sense B ccucGuGAuGGcAGccucu TTB; antisense AGAGGcuGccAucAcGAGGUU (sense CCUCGUGAUGGCAGCCUCUTT; antisense AGAGGCUGCCAUCACGAGGUU; sense: DNA at AGT, 2'-fluoro at CU, [invAb] at 5' end, 3' end, backbone not given here; antisense: sugars from the 5' end rrrmmffmffmffmfmmmmmm, backbone not given here) | 25 ± 5%
8 | 48723-DC: siNA duplex, ICAM-1 target site 390 (h); sense B cuGGcAAuGcccAGAcAuc TTB; antisense GAUGucuGGGcAuuGccAGUU (sense CUGGCAAUGCCCAGACAUCTT; antisense GAUGUCUGGGCAUUGCCAGUU; sense: DNA at AGT, 2'-fluoro at CU, [invAb] at 5' end, 3' end, backbone not given here; antisense: sugars from the 5' end rrrmfffmmmfmffmffmmmm, backbone not given here) | 68 ± 12%
9 | 29292-DC: siNA duplex, ICAM-1 target site 863 (h); sense B GccAAuuucucGuGccGcA TTB; antisense UGCGGcAcGAGAAAuuGGcUU (sense GCCAAUUUCUCGUGCCGCATT; antisense UGCGGCACGAGAAAUUGGCUU; sense: DNA at AGT, 2'-fluoro at CU, [invAb] at 5' end, 3' end, backbone not given here; antisense: sugars from the 5' end rrrmmfmfmmmmmmffmmfmm, backbone not given here) | 76 ± 3%
10 | 48701-DC: siNA duplex, ICAM-1 target site 1505 (m); sense B AGuAcuGuAccAcucucAA TTB; antisense UUGAGAGuGGuAcAGuAcuUU (sense AGUACUGUACCACUCUCAATT; antisense UUGAGAGUGGUACAGUACUUU; sense: DNA at AGT, 2'-fluoro at CU, [invAb] at 5' end, 3' end, backbone not given here; antisense: sugars from the 5' end rrrmmmmfmmfmfmmfmffmm, backbone not given here) | 3 ± 17%
